Source: patent US12187672B2, “1,2-diacylglycerol compound, preparation method therefor, and immunomodulator containing same as active ingredient” (ENZYCHEM LIFESCIENCES CORPORATION, priority 2018, dated 2025)

B1: IL-4: IL-4 used to induce STAT6 activity in A549 cells (protein, UniProt P05112 25-153, looked up)
Interleukin-4: HKCDITLQEIIKTLNSLTEQKTLCTELTVTDIFAASKNTTEKETFCRAATVLRQFYSHHEKDTRCLGATAQQFHRHKQLIRFLKRLDRNLWGLAGLNSCPVKEANQSTLENFLERLKTIMREKYSKCSS

What was measured:
HL-60 cells = test: Migration of HL-60 cell line toward THP-1 culture supernatant (transmigration assay); assay type: cell-based, human
Procedure: In RPMI (Hyclone, Thermo Scientific) medium to which 10% Fetal Bovine Serum was added, THP-1 cells, a human macrophage family, were subcultured at a concentration of 1×10^5 cells/ml, and culture was conducted in a 5% CO2 humidified incubator at 37° C. In order to prepare the THP-1 cell culture solution to be treated in the lower well during the transmigration assay, first, the cultured THP-1 cells were inoculated into a 12 well plate by 1×10^6 cells/ml and stabilized for 30 minutes. Then, the culture solution was treated with a glycerol derivative compounds of the type shown in Table 7 below for 1 hour and then was treated with Gemcitabine (2 μg/ml) of a cell stimulator, and subsequent further incubation was conducted for 24 hours. Thereafter 1.5 ml of the culture supernatant was collected for each well and centrifuged (at 3000 rpm, 5 minutes) to recover the supernatant. The CXCL8 (IL-8) level in the recovered supernatant was measured according to the manual provided by Cultrex 96 well Laminin Cell Invasion assay. The day before Transmigration assay was carried out, a 1× Lamin I solution was treated in the upper Invasion Chamber and coated. Thereafter, in RPMI (Hyclone, Thermo Scientific) medium to which 10% Fetal Bovine Serum was added, the cultured HL-60 cells were despensed of 5×10^4 cells/chamber, and 150 μl of the THP-1 culture supernatant prepared in advance was added to the lower chamber. Thereafter the upper chamber was removed, and the cells were attached to the bottom of the lower chamber by a centrifuge, and then the supernatant was removed. Cell dissociation/Calcein-AM solution was added and reacted for 1 hour. Then, the value obtained using a fluorescence spectroscopy was calculated by converting the number of cells.

STAT3 [1] = test: STAT3 activity, pGL4.47 SIE luciferase reporter in LPS-treated RAW264.7 cells; assay type: cell-based, mouse; details: sample 100 μg/ml 1 h, then LPS 1 μg/ml 18 h
Procedure: pGL4.47 [luc2P/SIE/Hygro] vector containing the sis-Inducible Element that binds to STAT3 was injected into RAW264.7 cells to confirm the degree of STAT3 activity. In DMEM (Hyclone, Thermo Scientific) medium to which 10% Fetal Bovine Serum was added, RAW264.7 cells were cultured at a concentration of 1×10^5 cells/ml, and maintained in a 5% CO2 humidified incubator at 37° C. The cultured RAW264.7 cells were inoculated into a 48 well plate by 1×10^5 cells/ml and stabilized for 18 hours. Thereafter, the pGL4.47 [luc2P/SIE/Hygro] vector containing sis-Inducible Element was mixed with Attractene to induce complex formation at room temperature for 15 minutes. This complex was treated with the cells and then further incubated for 18 hours. Thereafter, the culture solution was treated with a glycerol derivative compounds of the type shown in Table 5 below for 1 hour and then LPS (1 μg/ml) was treated and further incubated for 18 hours for STAT3 activity. Thereafter, the culture supernatant was removed for each well, and the remaining cells were lysed with a cell lysis buffer, and then cell lysate was recovered. 90 μl of luciferase reagent was mixed with 10 μl of the recovered cell lysate, and the degree of fluorescence was confirmed using a luminometer.

IL-4 = test: PKC activator-induced IL-4 secretion reduction in EL-4 cells (ELISA); assay type: cell-based, mouse; details: sample 100 μg/ml 2 h, then PKC activator 18 h, Table 12
Procedure: In DMEM (Dulbecco Modified Eagle Medium, Hyclone, Thermo Scientific) medium to which 10% Fetal Bovine Serum was added, EL-4 cells, a mouse lymphoma family, were subcultured at a concentration of 1×10^5 cells/ml, and culture was conducted in a 5% CO2 humidified incubator at 37° C. The cultured EL-4 cells were inoculated into a 48 well plate by 5×10^4 cells/ml and stabilized for 30 hours. Then, the culture solution was treated with a glycerol derivative compounds of the type shown in Table 11 and 12 below for 2 hours. Thereafter, it were treated with 0.5 μg/ml of PKC activator (p10, some kind of PMA) of a cell stimulator, and subsequent further incubation were conducted for 18 hours. Thereafter 0.5 ml of the culture supernatant was collected for each well and centrifuged (at 3000 rpm, 5 minutes) to recover the supernatant. The IL-4 level in the recovered supernatant was measured according to the manual provided by the Mouse IL-4 ELISA set (BD Biosciences). The day before ELISA was carried out, the IL-4 capture antibody was diluted in phosphate buffered saline, coated on a microwell, and then stored at 4° C. overnight. Each well was washed three times with a buffer solution and then blocked with 2% Bovine Serum Albumin (BSA) for 1 hour at room temperature. After washing with buffer solution three times, 100 μl of sample was dispensed into each well and left at room temperature for 2 hours. Detection antibody which was washed 3 times with washing buffer solution and diluted was dispensed into each well and allowed to react at room temperature for 1 hour and left at room temperature for 1 hour. Thereafter, the secondary HRP conjugated antibody was reacted at room temperature for 30 minutes, washed three times with buffer solution, and treated with 50 μl of stop solution for each well, and then the optical density was measured at 450 nm with an ELISA microplate leader. The results of the measured expression reduction rate ([…]) were shown in Table 11, Table 12, FIG. 11 and FIG. 12 below.

IL-6 = test: LPS-induced IL-6 secretion reduction in RAW264.7 cells (ELISA); assay type: cell-based, mouse; details: sample 100 μg/ml 1 h, then LPS 1 μg/ml 24 h, Table 3
Procedure: In DMEM (Dulbecco Modified Eagle Medium, Hyclone, Thermo Scientific) medium to which 10% Fetal Bovine Serum was added, RAW264.7 cells, a mouse macrophage family, were suspended at a concentration of 1×10^5 cells/ml, and culture was conducted in a 5% CO2 humidified incubator at 37° C. The cultured RAW264.7 cells were inoculated into a 48 well plate by 5×10^4 cells/ml and stabilized for 15 hours. Then, the culture solution was treated with a glycerol derivative compounds of the type shown in Table 2 and 3 below for 1 hour and then was treated with 1 μg/ml of Lipopolysaccaride (LPS) of a cell stimulator, and subsequent further incubation was conducted for 24 hours. Thereafter 0.5 ml of the culture supernatant was collected for each well and centrifuged (at 3000 rpm, 5 minutes) to recover the supernatant. The IL-6 level in the recovered supernatant was measured according to the manual provided by the Mouse IL-6 ELISA set (BD Biosciences). The day before ELISA was carried out, the IL-6 capture antibody was diluted in phosphate buffered saline, coated on a microwell, and then stored at 4° C. overnight. Each well was washed three times with a buffer solution and then blocked with 2% Bovine Serum Albumin (BSA) for 1 hour at room temperature. After washing with buffer solution three times, […] of sample was dispensed into each well and left at room temperature for 2 hours. Detection antibody which was washed 3 times with washing buffer solution and diluted was dispensed into each well and allowed to react at room temperature for 1 hour and left at room temperature for 1 hour. Thereafter, the secondary HRP conjugated antibody was reacted at room temperature for 30 minutes, washed three times with a buffer solution, and treated with 50 μl of stop solution for each well, and then the optical density was measured at 450 nm with an ELISA microplate leader. The results of the IL-6 expression reduction rate (IL-6 concentration) are shown in Table 2, Table 3, FIG. 1 and FIG. 2 below.

CXCL8 (IL-8) = CXCL8 (IL-8) expression reduction in Gemcitabine-treated THP-1 cells (ELISA); assay type: cell-based, human; details: for CXCL8 [IL-8] concentration (average ± deviation): THP-1 cells
Procedure: In RPMI (Hyclone, Thermo Scientific) medium to which 10% Fetal Bovine Serum was added, THP-1 cells, a human macrophage family, were suspended at a concentration of 1×10^5 cells/ml, and culture was conducted in a 5% CO2 humidified incubator at 37° C. The cultured THP-1 cells were inoculated into a 12 well plate by 1×10^6 cells/ml and stabilized for 30 minutes. Then, the culture solution was treated with a glycerol derivative compounds of the type shown in Table 6 below for 1 hour and then was treated with Gemcitabine (2 μg/ml) of a cell stimulator, and subsequent further incubation was conducted for 24 hours. Thereafter 1.5 ml of the culture supernatant was collected for each well and centrifuged (at 3000 rpm, 5 minutes) to recover the supernatant. The CXCL8 (IL-8) level in the recovered supernatant was measured according to the manual provided by the human IL-8 ELISA set (BD Biosciences). The day before ELISA was carried out, the IL-8 capture antibody was diluted in phosphate buffered saline, coated on a microwell, and then stored at 4° C. overnight. Each well was washed three times with a buffer solution and then blocked with 2% Bovine Serum Albumin (BSA) for 1 hour at room temperature. After washing with washing buffer solution three times, 100 μl of sample was dispensed into each well and left at room temperature for 2 hours. Detection antibody which was washed 3 times with washing buffer and diluted was dispensed into each well and allowed to react at room temperature for 1 hour and left at room temperature for 1 hour. Thereafter, the secondary HRP conjugated antibody was reacted at room temperature for 30 minutes, washed three times with a washing buffer, and treated with 50 μl of stop solution for each well, and then the optical density was measured at 450 nm with an ELISA microplate leader.

STAT6 = test: IL-4-induced STAT6 activity, pGL4-STAT6 luciferase reporter in A549 cells; assay type: cell-based
Procedure: In DMEM (Dulbecco Modified Eagle Medium, Hyclone, Thermo Scientific) medium to which 10% Fetal Bovine Serum was added, A549 cells were subcultured at a concentration of 1×10^5 cells/ml, and culture was conducted in a 5% CO2 humidified incubator at 37° C. The cultured A549 cells were inoculated into a 48 well plate by 1×10^5 cells/ml and stabilized for 18 hours. Thereafter, pGL4-STAT6 reporter vector containing a STAT6 binding promoter portion was mixed with Attractene to induce complex formation at room temperature for 15 minutes. This complex was treated with the cells and then further incubated for 24 hours. Thereafter, the culture solution was treated with a glycerol derivative compounds of the type shown in Table 9 and 10 below for 1 hour, and then IL-4 (2 ng/ml or 10 ng/ml) was further incubated for 20 hours for STAT6 activity. Thereafter, the culture supernatant was removed for each well, and the remaining cells were lysed with a cell lysis buffer, and then cell lysate was recovered. 90 μl of luciferase reagent was mixed with 10 μl of the recovered cell lysate, and the degree of fluorescence was confirmed using a luminometer. The results are shown in Table 9, Table 10, FIG. 9 and FIG. 10 below.

STAT3 [2] = test: IL-6-induced STAT3 activity, SEAP expression in HEK-Blue IL-6 cells; assay type: cell-based
Procedure: HEK-Blue™ IL-6 cells were used to confirm STAT3 activity by STAT3-induced SEAP (secreted embryonic alkaline phosphatase) expression. In DMEM (Hyclone, Thermo Scientific) medium to which 10% Fetal Bovine Serum was added, HEK-Blue™ IL-6 cells were cultured at a concentration of 1×10^5 cells/ml, and maintained in a 5% CO2 humidified incubator at 37° C. The cultured HEK-Blue™ IL-6 cells were inoculated by 1×10^5 cells/ml. Then, the culture solution was treated with a glycerol derivative compounds of the type shown in Table 4 below for 1 hour and then IL-6 (5 ng/ml) was further incubated for 24 hours for STAT3 activity. Thereafter, the culture supernatant was collected for each well and centrifuged (at 3000 rpm, 5 minutes) to recover the supernatant. The SEAP expression level in the recovered supernatant was mixed with Quanti blue reagent and the supernatant at a ratio of 1:10 and left at 37° C. for about 30 minutes. Then, the SEAP concentration was confirmed at 650 nm wavelength using a spectrophotometer, and the results (STAT3 activity inhibitory ability) thereof are shown in Table 4 and FIG. 3 below.

[3] = sample 100 μg/ml 1 h, then IL-4 (10 ng/ml) 20 h, Table 10
[4] = THP-1 cells treated with Gemcitabine

Molecule | STAT3 activity_Luciferase activity (average ± deviation) (STAT3 [1]) | IL-4 concentration (average ± deviation) (IL-4) [pg/µL] | IL-6 concentration (average ± deviation) (IL-6) [pg/µL] | STAT6 activity_Luciferase activity (average ± deviation) (STAT6; [3]) | other results
CCCCC/C=C\C/C=C\CCCCCCCC(=O)OC(COC(=O)CCCCCCCC)COC(=O)CCCCCCCCCCCCCCC (stereo not drawn) [EC_A84] | 780 ± 27.5 | 615.6 ± 25.0 | 0.799 ± 0.025 |  | Number of HL-60 cells migrated through Transwell (HL-60 cells; supernatant of THP-1 cells treated with sample 100 μg/ml 1 h, then Gemcitabine 2 μg/ml 24 h): 2197.8 Cell Number; CXCL8 [IL-8] concentration (average ± deviation) (CXCL8 (IL-8); sample 100 μg/ml 1 h, then Gemcitabine 2 μg/ml 24 h): 110.5 ± 6.8 pg/µL
CCCCC/C=C\C/C=C\CCCCCCCC(=O)OC(COC(=O)CCCCCCCCCCC)COC(=O)C(C)C (stereo not drawn) [EC_A94] | 640 ± 275.7 | 523.8 ± 62.3 | 0.702 ± 0.079 | 14677.5 ± 2168.7 | 
CCCCC/C=C\C/C=C\CCCCCCCC(=O)OC(COC(=O)CCCCCCCCCCC)COC(=O)C(C)(C)C (stereo not drawn) [EC_A95] | 663 ± 61.5 | 680.1 ± 12.2 | 0.777 ± 0.020 | 13649.0 ± 7369.3 | 
Nc1ccn([C@@H]2O[C@H](CO)[C@@H](O)C2(F)F)c(=O)n1 [Gemcitabine, reference compound] |  |  |  |  | increase of neutrophil cell migration compared to the negative control group (HL-60 cells; [4]): about twice; Number of HL-60 cells migrated through Transwell (HL-60 cells; supernatant of THP-1 cells treated with Gemcitabine 2 μg/ml alone): 5022.9 Cell Number; increase of CXCL8 (IL-8) secretion compared to the negative control group (CXCL8 (IL-8); [4]): about 13 times; CXCL8 [IL-8] concentration (average ± deviation) (CXCL8 (IL-8); Gemcitabine 2 μg/ml alone): 104.6 ± 1.5 pg/µL
IL-6: IL-6 cytokine used to induce STAT3 activity [reference compound] |  |  |  |  | increase of STAT3 activity compared to the negative control group (STAT3 [2]; HEK-Blue IL-6 cells treated with IL-6): about 2.3 times; STAT3 activity_SEAP expression(%) (average ± deviation) (STAT3 [2]; HEK-Blue IL-6 cells, IL-6 5 ng/ml alone, negative control = 100): 228.8 ± 17.0%
B1 |  |  |  |  | STAT6 activity_Luciferase activity (average ± deviation) (STAT6; IL-4 alone, concentration printed 2 (head μg/ml; method 2 ng/ml), Table 9): 982.0 ± 38.7; STAT6 activity_Luciferase activity (average ± deviation) (STAT6; IL-4 alone, concentration printed 10 (head μg/ml; method 10 ng/ml), Table 10): 22846.2 ± 2157.3
